Key:
LXR signaling pathway = assay: RT-qPCR of LXR target genes (SREBP-1c, ABCA1, ABCG8) in Huh-7 cells; format: cell-based, human; settings: 16 h
Protocol: Cells were treated as described in corresponding figure legends, then total RNA was extracted from cells or mouse livers using TRI Reagent (T9424, Sigma-Aldrich). Equal amounts of RNA from cells or mice receiving the same treatment were pooled were used for cDNA synthesis with oligo dT and reverse transcriptase MLV (Promega). Gene expression was analyzed by quantitative real-time PCR on a Stratagene Mx30005PTM Q-PCR Systems. The primers used were listed in Supplementary Tables 2–4. […]
pathway. a-c Huh-7 cells were treated with indicated compounds for 16 h and then harvested for total RNA isolation and RT-qPCR. Cells treated with LXR agonist T0901317 w ere used as positive controls. The relative mRNA levels of SREBP -1c (a), ABCA1 (b) and ABCG8 (c) were quantified . GAPDH was the reference gene. The relative mRNA level in DMSO-treated cells was defined as 1. Data are from 3 independent experiments and presented as mean ± SD.
(1 picture or pasted object on this page, not shown here)

HMGCR = biological target: T1, HMGCR (Cricetulus griseus, UniProt P00347); assay: Immunoblotting of HMGCR in SRD-15 (Insig-1 and Insig-2-deficient) cells; format: cell-based, Chinese hamster; settings: SRD-15 cells
T1 construct: endogenous in cells; host or cells: CHO-7, CHG, SRD-13A, SRD-15
T1 sequence (P00347 1-887): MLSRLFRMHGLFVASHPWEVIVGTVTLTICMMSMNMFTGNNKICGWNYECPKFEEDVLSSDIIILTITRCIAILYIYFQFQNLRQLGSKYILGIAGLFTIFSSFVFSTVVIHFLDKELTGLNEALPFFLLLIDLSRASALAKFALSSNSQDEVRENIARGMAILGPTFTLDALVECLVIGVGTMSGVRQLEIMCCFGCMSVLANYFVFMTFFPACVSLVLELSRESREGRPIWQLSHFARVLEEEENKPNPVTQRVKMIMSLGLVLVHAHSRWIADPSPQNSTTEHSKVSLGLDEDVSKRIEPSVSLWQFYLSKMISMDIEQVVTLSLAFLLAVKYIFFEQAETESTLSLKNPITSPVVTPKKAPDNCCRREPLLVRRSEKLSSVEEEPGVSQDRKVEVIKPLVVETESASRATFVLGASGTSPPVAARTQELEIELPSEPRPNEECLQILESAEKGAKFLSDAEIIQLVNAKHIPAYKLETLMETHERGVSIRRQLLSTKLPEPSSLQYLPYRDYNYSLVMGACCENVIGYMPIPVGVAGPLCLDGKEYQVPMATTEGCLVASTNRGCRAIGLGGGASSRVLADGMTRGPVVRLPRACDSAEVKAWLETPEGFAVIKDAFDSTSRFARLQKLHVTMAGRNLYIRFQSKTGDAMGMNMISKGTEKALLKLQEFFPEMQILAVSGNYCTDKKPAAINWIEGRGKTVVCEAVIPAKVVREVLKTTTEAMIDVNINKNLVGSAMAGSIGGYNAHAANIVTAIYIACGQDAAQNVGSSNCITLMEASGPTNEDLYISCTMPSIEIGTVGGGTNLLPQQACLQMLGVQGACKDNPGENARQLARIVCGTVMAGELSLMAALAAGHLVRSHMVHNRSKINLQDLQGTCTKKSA
Protocol: CHO-7 (Chinese hamster ovary cell, a clone of CHO-K1 cell line selected for growth in LPDS) and Huh7 (a human hepatocellular carcinoma cell line), SRD-13A (a Scap-deficient CHO-7 cell line) and SRD-15 (an Insig-1 and Insig-2-deficient CHO-7 cell line) were generous gifts from Russell Debose-Boyd at UT Southwestern Medical Center, USA. All cells were grown in a monolayer at 37 °C with 5% CO2. Huh7 cells were maintained in medium A supplemented with 10% FBS. CHO-7 and SRD-15 cells were maintained in medium B supplemented with 5% FBS. SRD-13A cells were maintained in medium B with 5% FBS, 5 μg ml^−1 cholesterol, 1 mM sodium mevalonate, 10 μM sodium oleate. No cell lines used in this study were found in the database of commonly misidentified cell lines that is maintained by ICLAC and NCBI Biosample. […]
Cells were harvested and homogenized in the RIPA buffer (50 mM Tris-HCl, pH 8.0, 150 mM NaCl, 2 mM MgCl2, 1.5% NP-40, 0.1% SDS, and 0.5% sodium deoxycholate) supplemented with protease cocktail inhibitor, 10 μM MG-132, 10 μg ml^−1 leupeptin and 1 mM phenylmethylsulfonyl fluoride. The protein concentrations of lysates were determined using BCA method (Beyotime). […] Western blot images were captured by Amersham Imager 600 (GE Healthcare), and integrated optical intensities of each band were quantified by Image-Pro Plus 6 software (Media Cybernetics). […]

C=CCC(O)(CC=C)CCCC(C)C1CCC2C3C(O)C=C4C(C)(C)C(O)CCC4(C)C3CCC12C (centres unmarked) [Cmpd 81]
expression of LXR target genes (SREBP-1c, ABCA1 and ABCG8) mRNA (LXR signaling pathway): did not induce the expression
Cmpd 81-induced disappearance of endogenous HMGCR in cells lacking Insig-1 and Insig-2 (HMGCR): completely abolished
